Measured values published in patent publication US7368424B2, “Acylated nonadepsipeptides” (AiCuris GmbH & Co. KG, priority 2003, dated 2008).
Converted amounts (≈) assume the structure as drawn. Read-outs that look alike come from different tables or passages of the source. *1 amine or outer side, *2 acyl side, *3 side chain or, on linkers, in order; H or OH if unused. Where a SMILES comes first, the peptide text is derived from it. Bridges are numbered along the chain shown (N, C = ends). [ ]: non-standard residue; d: D form. The star is where a group is joined. ξ: configuration not given here. Phe(3R-OH) = O=C([C@@H](N[*:1])[C@H](O[*:3])c1ccccc1)[*:2]; Phe(4-NO2) = N[C@@H](Cc1ccc([N+](=O)[O-])cc1)C(=O)O; Asn(3S-OH) = NC(=O)[C@@H](O)[C@H](N)C(=O)O; Leu(3R-OH) = CC(C)[C@@H](O)[C@H](N)C(=O)O; dAla(TMS) = C[Si](C)(C)C[C@@H](N)C(=O)O; d(tBuAla) = CC(C)(C)C[C@@H](N)C(=O)O; 2Pal = N[C@@H](Cc1ccccn1)C(=O)O; aThr = C[C@H](O)[C@H](N)C(=O)O; Aic = NC1(C(=O)O)Cc2ccccc2C1; ξIle = CC[C@H](C)C(N)C(=O)O; dOrn = NCCC[C@@H](N)C(=O)O; Ac6c = NC1(C(=O)O)CCCCC1; Cbz = O=C(OCc1ccccc1)*; OtBu = CC(C)(C)O*; tBu = CC(C)(C)*

What was measured:
E. faecium L4001 = format: cell-based, Enterococcus faecium
[1] = test system: Staphylococcus aureus 133; format: cell-based
Protocol: (§1) Determination of the Minimum Inhibitory Concentration (MIC):
(§2) The MIC is determined in the liquid dilution test in accordance with the NCCLS guidelines. Overnight cultures of Staphylococcus aureus 133, Enterococcus faecalis 27159, E. faecium 4147 and Streptococcus pneumoniae G9a are incubated with the desired test substances in a 1:2 dilution series. The MIC determination is carried out with a cell count of 10^5 microbes per ml in Isosensitest medium (Difco, Irvine/USA), with the exception of S. pneumoniae which is tested in BHI broth (Difco, Irvine/USA) with 10% bovine serum with a cell count of 10^6 microbes per ml. The cultures are incubated at 37° C. for 18-24 hours, S. pneumoniae in the presence of 10% CO2.
(§3) The MIC is defined as the lowest concentration of each substance at which visible bacterial growth no longer occurs. The MIC values are reported in μg/ml.

[2] = test system: Streptococcus pneumoniae G9a; format: cell-based
Protocol: as §1, §2, §3

E. faecalis ICB 27159 = format: cell-based, Enterococcus faecalis
Protocol: as §1, §2, §3

[3] = Isosensitest medium, 10^5 microbes per ml, 37° C., 18-24 hours

Row | Structure (SMILES) | MIC E. faecium L4001 (E. faecium L4001; [3]) | MIC S. aureus 133 [1, 3] | MIC S. pneumoniae ([2]; BHI broth with 10% bovine serum, 10^6 microbes per ml, 10% CO2, 37° C., 18-24 hours) | MIC E. faecalis ICB 27159 (E. faecalis ICB 27159; [3]) | MIC E. faecium L4001 (E. faecium L4001; L4001) | MIC S. aureus 133 [1]; 133 | MIC S. pneumoniae ([2]; G9a) | MIC E. faecalis ICB 27159 (E. faecalis ICB 27159; ICB 27159)
1 | CC[C@H](C)C1NC(=O)[C@@H](CCCNC(=N)N)NC(=O)[C@H](CC(C)C)NC(=O)[C@H]([C@H](O)C(C)C)NC(=O)[C@@H](NC(=O)[C@H](CC(=O)OC(C)(C)C)NC(=O)[C@H](N)CC(C)(C)C)[C@@H](c2ccccc2)OC(=O)[C@H](CO)NC(=O)[C@H]([C@H](O)C(N)=O)NC(=O)CNC(=O)[C@H]([C@H](C)O)NC1=O.O=C(O)C(F)(F)F.O=C(O)C(F)(F)F (stereo partly drawn) [Example 101, (2S)-2-[(3-tert-Butyl-D-alanyl)amino]-4-tert-butoxy-4-oxobutanoyl-de(1-D-leucyl-2-L-leucyl)lysobactin bistri-fluoroacetate] (H-[d(tBuAla)]D(OtBu)[Phe(3R-OH)][Leu(3R-OH)]L[dR][ξIle][aThr]G[Asn(3S-OH)]S; ester 3-C) | 1 µg/mL | 1 µg/mL | 0.5 µg/mL | 1 µg/mL | – | – | – | –
2 | CC[C@H](C)[C@@H]1NC(=O)[C@@H](CCCNC(=N)N)NC(=O)[C@H](CC(C)C)NC(=O)[C@H]([C@H](O)C(C)C)NC(=O)[C@@H](NC(=O)[C@H](Cc2ccccn2)NC(=O)[C@H](N)CC(C)(C)C)[C@@H](c2ccccc2)OC(=O)[C@H](CO)NC(=O)[C@H]([C@H](O)C(N)=O)NC(=O)CNC(=O)[C@H]([C@H](C)O)NC1=O [Example 97, 3-tert-Butyl-D-alanyl-3-(2-pyridyl)-L-alanyl-de(1-D-leucyl-2-L-leucyl)lysobactin tristrifluoroacetate] (H-[d(tBuAla)][2Pal][Phe(3R-OH)][Leu(3R-OH)]L[dR]I[aThr]G[Asn(3S-OH)]S; ester 3-C) | – | – | – | – | 1 µg/mL (≈ 0.754 µM) | 1 µg/mL (≈ 0.754 µM) | 0.125 µg/mL (≈ 0.0943 µM) | 0.5 µg/mL (≈ 0.377 µM)
3 | CC[C@H](C)[C@@H]1NC(=O)[C@@H](CCCNC(=N)N)NC(=O)[C@H](CC(C)C)NC(=O)[C@H]([C@H](O)C(C)C)NC(=O)[C@@H](NC(=O)[C@H](CC(C)C)NC(=O)C2(N)CCCCC2)[C@@H](c2ccccc2)OC(=O)[C@H](CO)NC(=O)[C@H]([C@H](O)C(N)=O)NC(=O)CNC(=O)[C@H]([C@H](C)O)NC1=O [Example 57, N-(1-Aminocyclohexyl)carbonyl-de(1-D-leucyl)lysobactin bistrifluoroacetate] (H-[Ac6c]L[Phe(3R-OH)][Leu(3R-OH)]L[dR]I[aThr]G[Asn(3S-OH)]S; ester 3-C) | – | – | – | – | 1 µg/mL (≈ 0.776 µM) | 0.5 µg/mL (≈ 0.388 µM) | 0.25 µg/mL (≈ 0.194 µM) | 1 µg/mL (≈ 0.776 µM)
4 | CC[C@H](C)[C@@H]1NC(=O)[C@@H](CCCNC(=N)N)NC(=O)[C@H](CC(C)C)NC(=O)[C@H]([C@H](O)C(C)C)NC(=O)[C@@H](NC(=O)[C@H](CC(C)C)NC(=O)C2(N)Cc3ccccc3C2)[C@@H](c2ccccc2)OC(=O)[C@H](CO)NC(=O)[C@H]([C@H](O)C(N)=O)NC(=O)CNC(=O)[C@H]([C@H](C)O)NC1=O [Example 18, (2-Amino-2,3-dihydro-1H-indenylcarbonyl)-de(1-D-leucyl)lysobactin bistrifluoroacetate] (H-[Aic]L[Phe(3R-OH)][Leu(3R-OH)]L[dR]I[aThr]G[Asn(3S-OH)]S; ester 3-C) | – | – | – | – | 1 µg/mL (≈ 0.756 µM) | 1 µg/mL (≈ 0.756 µM) | 2 µg/mL (≈ 1.51 µM) | 1 µg/mL (≈ 0.756 µM)
5 | CC[C@H](C)[C@@H]1NC(=O)[C@@H](CCCNC(=N)N)NC(=O)[C@H](CC(C)C)NC(=O)[C@H]([C@H](O)C(C)C)NC(=O)[C@@H](NC(=O)[C@H](CC(C)C)NC(=O)[C@H](N)Cc2ccccc2)[C@@H](c2ccccc2)OC(=O)[C@H](CO)NC(=O)[C@H]([C@H](O)C(N)=O)NC(=O)CNC(=O)[C@H]([C@H](C)O)NC1=O [Example 38, D-Phenylalanyl-de(1-D-leucyl)lysobactin bistrifluoracetate] (H-[dF]L[Phe(3R-OH)][Leu(3R-OH)]L[dR]I[aThr]G[Asn(3S-OH)]S; ester 3-C) | – | – | – | – | 0.5 µg/mL (≈ 0.382 µM) | 0.125 µg/mL (≈ 0.0954 µM) | 0.063 µg/mL (≈ 0.0481 µM) | 1 µg/mL (≈ 0.763 µM)
6 | CC[C@H](C)[C@@H]1NC(=O)[C@@H](CCCNC(=N)N)NC(=O)[C@H](CC(C)C)NC(=O)[C@H]([C@H](O)C(C)C)NC(=O)[C@@H](NC(=O)[C@H](CC(C)C)NC(=O)[C@H](N)CC(C)C)[C@@H](c2ccccc2)OC(=O)[C@H](CO)NC(=O)[C@H]([C@H](O)C(N)=O)NC(=O)CNC(=O)[C@H]([C@H](C)O)NC1=O.O=C(O)C(F)(F)F.O=C(O)C(F)(F)F [Example 1A, D-Leucyl-N^1-{(3S,6S,12S,15S,18R,21S,24S,27S,28R)-6-[(1S)-2-amino-1-hydroxy-2-oxoethyl]-18-(3-{[amino(imino)methyl]amino}propyl)-12-[(1S)-1-hydroxyethyl]-3-(hydroxymethyl)-24-[(1R)-1-hydroxy-2-methylpropyl]-21-isobutyl-15-[(1S)-1-methylpropyl]-2,5,8,11,14,17,20,23,26-nonaoxo-28-phenyl-1-oxa-4,7,10,13,16,19,22,25-octaazacyclooctacosan-27-yl}-L-leucinamide bistrifluoro-acetate, reference compound] (H-[dL]L[Phe(3R-OH)][Leu(3R-OH)]L[dR]I[aThr]G[Asn(3S-OH)]S; ester 3-C) | – | – | – | – | 0.5 µg/mL | 0.25 µg/mL | 0.063 µg/mL | 1 µg/mL
7 | CC[C@H](C)[C@@H]1NC(=O)[C@@H](CCCNC(=N)N)NC(=O)[C@H](CC(C)C)NC(=O)[C@H]([C@H](O)C(C)C)NC(=O)[C@@H](NC(=O)[C@H](CC(C)C)NC(=O)[C@H](N)COC(C)(C)C)[C@@H](c2ccccc2)OC(=O)[C@H](CO)NC(=O)[C@H]([C@H](O)C(N)=O)NC(=O)CNC(=O)[C@H]([C@H](C)O)NC1=O [Example 47, [O-(tert-Butyl)-D-seryl]-de(1-D-leucyl)lysobactin bistrifluoroacetate] (H-[dS](tBu)L[Phe(3R-OH)][Leu(3R-OH)]L[dR]I[aThr]G[Asn(3S-OH)]S; ester 3-C) | – | – | – | – | 1 µg/mL (≈ 0.765 µM) | 0.25 µg/mL (≈ 0.191 µM) | 0.25 µg/mL (≈ 0.191 µM) | 2 µg/mL (≈ 1.53 µM)
8 | CC[C@H](C)[C@@H]1NC(=O)[C@@H](CCCNC(=N)N)NC(=O)[C@H](CC(C)C)NC(=O)[C@H]([C@H](O)C(C)C)NC(=O)[C@@H](NC(=O)[C@H](CC(C)C)NC(=O)[C@H](N)CCSC)[C@@H](c2ccccc2)OC(=O)[C@H](CO)NC(=O)[C@H]([C@H](O)C(N)=O)NC(=O)CNC(=O)[C@H]([C@H](C)O)NC1=O [Example 24, D-Methionyl-de(1-D-leucyl)lysobactin bistrifluoroacetate] (H-[dM]L[Phe(3R-OH)][Leu(3R-OH)]L[dR]I[aThr]G[Asn(3S-OH)]S; ester 3-C) | – | – | – | – | 1 µg/mL (≈ 0.772 µM) | 0.25 µg/mL (≈ 0.193 µM) | 0.5 µg/mL (≈ 0.386 µM) | 2 µg/mL (≈ 1.54 µM)
9 | CC[C@H](C)[C@@H]1NC(=O)[C@@H](CCCNC(=N)N)NC(=O)[C@H](CC(C)C)NC(=O)[C@H]([C@H](O)C(C)C)NC(=O)[C@@H](NC(=O)[C@H](CC(C)C)NC(=O)[C@H](N)C[Si](C)(C)C)[C@@H](c2ccccc2)OC(=O)[C@H](CO)NC(=O)[C@H]([C@H](O)C(N)=O)NC(=O)CNC(=O)[C@H]([C@H](C)O)NC1=O [Example 59, 3-(Trimethylsilyl-D-alanyl-de(1-D-leucyl)lysobactin bistrifluoroacetate] (H-[dAla(TMS)]L[Phe(3R-OH)][Leu(3R-OH)]L[dR]I[aThr]G[Asn(3S-OH)]S; ester 3-C) | – | – | – | – | 0.25 µg/mL (≈ 0.191 µM) | 0.125 µg/mL (≈ 0.0957 µM) | <0.063 µg/mL | 0.25 µg/mL (≈ 0.191 µM)
10 | CC[C@H](C)[C@@H]1NC(=O)[C@@H](CCCNC(=N)N)NC(=O)[C@H](CC(C)C)NC(=O)[C@H]([C@H](O)C(C)C)NC(=O)[C@@H](NC(=O)[C@H](Cc2ccc([N+](=O)[O-])cc2)NC(=O)[C@H](N)Cc2ccccc2)[C@@H](c2ccccc2)OC(=O)[C@H](CO)NC(=O)[C@H]([C@H](O)C(N)=O)NC(=O)CNC(=O)[C@H]([C@H](C)O)NC1=O.O=C(O)C(F)(F)F.O=C(O)C(F)(F)F [Example 81, D-Phenylalanyl-4-nitro-L-phenylalanyl-de(1-D-leucyl-2-L-leucyl)lysobactine bistrifluoroacetate] (H-[dF][Phe(4-NO2)][Phe(3R-OH)][Leu(3R-OH)]L[dR]I[aThr]G[Asn(3S-OH)]S; ester 3-C) | – | – | – | – | 0.25 µg/mL | 0.5 µg/mL | 0.25 µg/mL | 0.25 µg/mL
11 | CC[C@H](C)[C@@H]1NC(=O)[C@@H](CCCNC(=N)N)NC(=O)[C@H](CC(C)C)NC(=O)[C@H]([C@H](O)C(C)C)NC(=O)[C@@H](NC(=O)[C@H](CC(C)C)NC(=O)[C@H](N)CCCNC(=O)OCc2ccccc2)[C@@H](c2ccccc2)OC(=O)[C@H](CO)NC(=O)[C@H]([C@H](O)C(N)=O)NC(=O)CNC(=O)[C@H]([C@H](C)O)NC1=O [Example 62, N^6-[(Benzyloxy)carbonyl]-D-ornithyl-de(1-D-leucyl)lysobactin bistrifluoroacetate] (H-[dOrn](Cbz)L[Phe(3R-OH)][Leu(3R-OH)]L[dR]I[aThr]G[Asn(3S-OH)]S; ester 3-C) | – | – | – | – | 0.5 µg/mL (≈ 0.354 µM) | 0.25 µg/mL (≈ 0.177 µM) | 0.5 µg/mL (≈ 0.354 µM) | 1 µg/mL (≈ 0.708 µM)
